Data published in patent US20100143994A1, “PROCESS FOR FERMENTIVE PREPARATION OF ALCOHOLS AND RECOVERY OF PRODUCT” (E. I. DU PONT DE MEMOURS AND COMPANY, priority 2008, published 2010).

Assays:
[1] = test system: Saccharomyces cerevisiae (W1362 20A); test: Scale-up (25 mL broth) fermentation with ionic liquid, glucose uptake and ethanol production over five hours; type: cell-based; settings: 5 volume percent ionic liquid, five hour time span, FIG. 2
Procedure: Cultures were again prepared using the same growth conditions as described above except that the total broth volume was 25 mL. The selected ionic liquids were added to a container of each broth in an amount of 5 volume percent. In these experiments, small samples were withdrawn from the broth for HPLC analysis periodically over a five hour time span to get a better idea of the extent of metabolic activity after ionic liquid addition as well as to provide information on glucose consumption and product formation. […] The calculation of GUI was made as described above, and amount of ethanol produced was taken directly from the HPLC data.

[2] = Extraction of ethanol from an aqueous solution by ionic liquid; type: physicochemical; settings: 3 mL aqueous solution about 31 g/L ethanol, 5 vol % ionic liquid, overnight equilibration
Procedure: (§1) Ethanol and isobutanol concentration in the solution was measured using HPLC as described above following thorough mixing and overnight equilibration of the contents of the vial.

[3] = Extraction of isobutanol from an aqueous solution by ionic liquid; type: physicochemical; settings: 3 mL aqueous solution about 31 g/L isobutanol, 5 vol % ionic liquid, overnight equilibration
Procedure: as §1

| Compound | ethanol production throughout the fermentation run [1] | glucose uptake (GUI) throughout the fermentation run [1] | Ethanol (mM) in solution after equilibration [2] [mM] | Isobutanol (mM) in solution after equilibration [3] [mM] |
| --- | --- | --- | --- | --- |
| 1-butyl-3-methylpyrrolidinium bis(trifluoromethylsulfonyl)imide [Example 15] | remained robust | remained robust | 676 | 391 |
| 1-ethyl-3-methylimidazolium bis(trifluoromethylsulfonyl)imide [Example 6] | remained robust | remained robust | 670 | 389 |
| 1-hexyl-3-methylimidazolium bis(trifluoromethylsulfonyl)imide [Example 9] | remained robust | remained robust | 678 | 388 |
| CCCCCCn1cc[n+](C)c1.FC(F)(F)C(F)(F)[P-](F)(F)(F)(C(F)(F)C(F)(F)F)C(F)(F)C(F)(F)F [Example 1, 1-hexyl-3-methylimidazolium tris(pentafluoroethyl)trifluorophosphate] | remained robust | remained robust | 680 | 404 |
